Reference: patent publication US6566047B1, “Method for identifying neurite-growth promoting agents” (The Regents of the University of Colorado, priority 1998, dated 2003)
Entries after “also recorded” stand apart in the source; their conditions may differ. One block for each compound: values may come before it.

Experiments:
[1] = system: growth cones in cultures of rat cerebral cortex; assay: Growth cone collapse assay in cortical neuron culture; assay type: cell-based; conditions: for effect of inhibitor pretreatment on thrombin- or TRAP-induced growth cone collapse: CDC 10 μM, indomethacin 25 μM, pretreatment 30-45 min; for growth cone collapse, agent alone: thrombin 100 nM, TRAP (100 mM), 12(S)-HETE 10^−7 M
Procedure: Neuron Culture. Cerebral cortices were dissected from embryonic day 18 Sprague-Dawley rats, cut into explants of less than 1 mm^3 and cultured on either poly-D-lysine-coated coverglass (Assistent) or poly-D-lvsine-coated tissue culture plastic. After 24 hours in B27 neurobasal medium (NB) supplemented with 10% fetal bovine serum, cultures were switched to serum-free B27/NB. The cultures were incubated at 37° C. in 5% CO2 in air. Sprouting neurons were observed readily on day 1. On day 2 or 3, long neurites were present, and the cultures were used for collapse experiments.
Actin Staining. After experimentation, cultures were fixed by slow infusion of fixative (4% paraformaldehyde in 0.1 M phosphate buffer, pH 7.4) into the culture dishes over 10 min (Pfenninger and Maylié-Pfenninger, J. Cell Biol. 89:53-546 (1981)). Thereafter, the fixative was removed by rinsing three times with phosphate-buffered saline (PBS) containing 1 mM glycine. Cultures were then blocked with PBS/1% bovine serum albumin (BSA) and permeabilized by incubation in 0.02% Triton X-100 for 5 min. After three washes in PBS/BSA, cultures were incubated with Texas-Red-conjugated phalloidin for 30 min. Unbound phalloidin was washed away by two PBS rinses, after which the coverglasses were mounted in Slow-Fade Light on microscope slides. Images were recorded on 35 mm film using a Zeiss Axiophot fluorescence microscope equipped with epiillumination.
Growth Cone Collapse Assay. Prior to repellent factor treatment, some of the day 2-3 explant cultures were pre-incubated (at 37° C.) with inhibitor or vehicle control (dimethylsulfoxide or ethanol) for 30-60 min. Cultures were then challenged with a repellent factor or vehicle control for 1-30 min. In some experiments, live cultures were photographed with a Zeiss IM 35 inverted photo microscope equipped with a stage heater, while in others cultures were fixed (as above) after 7 minutes of repellent factor treatment. Growth cone collapse was assessed quantitatively in aldehyde-fixed cultures by grading the degree of collapse in a large number of randomly selected growth cones.

12-Lox = assay: Eicosanoid (HETE) generation in GCPs; assay type: biochemical, rat
Procedure: Eicosanoid Assays. Eicosanoid production in GCPs was measured by metabolic labelling from ^14C-AA or ^14C-AA-PC or by mass spectrometric detection. […] To measure Lox activity directly, without PLA2 involvement, ^3H-AA was the substrate of choice. Reactions were stopped by the addition of chloroform/methanol as for the phospholipase assays. Reaction products were extracted as described by Birkle et al., Neuromethods, vol. 7, pp.227-244 (Humana Press, N.J. 1988), spotted on pre-activated si gel 60 TLC plates, and the plates developed in the upper phase of ethyl acetate/isooctane/acetic acid/water (100:60:20:100). AA and HETEs were identified by co-migration with standards. Appropriate bands were counted by liquid scintillation spectrometry.
For mass-spectrometric (MS) identification of HETEs, two different strategies were pursued:
(1) the appropriate bands from non-labelled samples (PC substrate) were scraped from the TLC plate into ether/methanol (9:1) and stored under N2 at −20° C. Authentic 12(S)-HETE, run alongside in the same manner, was used as a standard. Just prior to analysis, samples were passed over an SPE filter to eliminate silica particles, dried under argon, resuspended in 500 μl ethanol, and injected (at 3 μl/min) into a Finnigan LCQ quadrupole ion trap mass spectrometer (Finnigan MAT, San Jose, Calif.) equipped with an electrospray ionization source. All spectra were acquired at a capillary temperature of 80° C., and ion guide voltages were tuned to maximize the abundance of the deprotonated ion species [M-H]^− in negative mode. In order to generate a spectrum, typically 100 single scans were averaged.
(2) For the other strategy (liquid chromatography/tandem MS, LC/MS^2), the reaction substrate consisted of 3.5 μM AA, with the addition of 3.5 μM deuterated AA (AA-D8) plus 1 μCi ^3H-AA to track reaction products by mass and radioactivity, respectively. Reactions were stopped with ice-cold ethanol, the mixtures kept overnight at −20° C. under N2, and the proteins spun out The supernatants were diluted with H2O and loaded onto 1-ml C18 Sep-Pak columns (Varian). After washing with H2O, eicosanoid was eluted with 2 ml methanol. These samples were resolved by reverse-phase HPLC, and the eluted fractions analyzed by tandem MS on-line (MacMillan and Murphy, 1995). Collision-induced decomposition of HETE isomers produced characteristic fragments that were identified at the second MS stage.

MAT-Lu cells = assay: Pseudopod morphometry (pseudopod length assay), MAT-Lu cells; assay type: cell-based, rat; conditions: for effect of inhibitor pretreatment on AA-induced pseudopod shortening: 15 min pretreatment, indomethacin 10 ηm, NDGA 25 μM, CDC 63 and 126 nM; for effect of agent alone on pseudopod length: typically 15 min exposure
Procedure: (§1) Pseudopod Morphometry. To study the effects of various agents on pseudopods on a short-term basis, we measured pseudopod lengths. Cells plated in 35-mm diameter dishes at low density (1×10^4 per dish) were incubated overnight, tie medium was changed, and the experiments were run four hours later. First, cultures were shifted to serum-free medium, which was replaced one hour later by serum-free medium with or without the various agents (thrombin, AA or HETEs). Care was taken to avoid heat and light inactivation of the eicosanoids. Culture dishes were placed on a Zeiss inverted microscope equipped with a heated stage and viewed with a 16×phase contrast objective lens. Randomly selected fields of the cultures, containing generally about 20 cells each, were recorded, digitized and stored in the computer at the onset of the experiment and at different times thereafter.
(§2) In some cases, individual cells were monitored over different periods of time immediately after introduction of the reagent, either by mixing it into the medium or by applying it locally to one end of the cell. Local application was done with a “puffer” system that expels microliter amounts of the desired solution from a micromanipulator-controlled micropipette tip. Cell morphology was recorded, and the captured images were analyzed with a Power Macintosh computer using NIH Image. Cell process length was measured from the center of the nucleus to the end of the process. Characterization of the frequencies of pseudopod lengths, at a fixed time for each of a sequence of concentrations of reagent, utilized a gamma regression model with an inverse quadratic linear predictor (McCullagh and Nelder, Generalized Linear Models 2d ed., pp. 291-292 (Chapman & Hall, 1989), separately fit to each concentration data set. Although no formal goodness-of-fit tests were carried out, in virtually every case there was good visual representation of the pattern of response (see FIG. 14). Most data, however, are shown as whisker-box plots, where the center point represents the 50%, the ends of the box the […] and 75%, and the “whiskers” the 5% and 95% quantiles (e.g., FIG. 11). Statistical comparisons of pseudopod lengths for different treatments were done by standard non-parametric techniques (Wilcoxon Rank Sum or Kruskal-Wallis Tests), as judged appropriate. Polynomial curve fittings were done by standard least-squares techniques. Statistical analyses and graphing were done with the use of SAS procedures: Reg, Phreg, Nparlway and Plot (SAS institute Inc., Cary, N.C.).

GCPs plated on laminin = assay: GCP release (detachment) assay on laminin; parameters: species or system rat; conditions: 20 min at 37° C., cytochalasin D 1 μM
Procedure: GCP Release Assay. Petri dishes (35 mm diameter) were coated with 10 μg mouse laminin in PBS by incubation at room temperature for 60 min with shaking. Dishes were subsequently rinsed three times with PBS to remove unbound laminin and then blocked with 5% non-fat dry milk (Carnation) in PBS for 30 min. After three PBS rinses to remove blocking agent, the dishes were ready for the addition of GCPs. […] After incubation for five min at 37° C. this buffered GCP preparation was added to the laminincoated petri dishes. Contact with the substratum was facilitated by centrifuging the dishes for 15 min at 5000 g (Beckman JS5.2 rotor) at room temperature, followed by incubation at 37° C. to allow adhesion site formation. After 10 min, unattached GCPs were removed by rinsing the dishes twice with 1× modified Krebs buffer. Plated GCPs were then challenged with repellent factor (TRAP or thrombin) for 20 min at 37° C. The supernatant containing released GCPs was collected and centrifuged for protein determination of the pellet. GCPs that remained attached after repellent treatment were removed with 5% sodium dodecyl sulfate (SDS) for protein assay. Protein was measured according to Lowry et al. (1951) as modified by Peterson (1983). Results of these experiments were expressed as the percentage of released versus total GCP protein in the assay.

protein kinase C (PKC) = assay: MARCKS phosphorylation by PKC in isolated GCPs; assay type: biochemical, rat
From the text: FIG. 7A. Thrombin stimulates MARCKS phosphorylation in a 12-LOX-dependent manner. FIG. 7B. 12(S)-HETE stimulates MARCKS phosphorylation by PKC in isolated GCPs. […] Polypeptides were resolved by SDS-PAGE. MARCKS phosphorylation was quantified by phosphorimaging.

growth cone PLA2 = assay: PLA2 assay in growth cone particles (GCPs); assay type: biochemical, rat; conditions: GCPs
Procedure: Growth Cone Particle (GCP) Isolation. GCPs were prepared as described by Pfenninger et al. (1983) and modified by Lohse et al., Dev. Brain Res., 96:38-96 (1996). Briefly, 18-day fetal brains were homogenized in approximately 8 volumes of 0.32 M sucrose containing 1 mM MgCl2, 2 mM TES buffer, pH 7.3, and 3 μM aprotinin. A low-speed supernatant (1,660 g×15 min) was loaded onto a discontinuous sucrose density gradient With steps of 0.83 M and 2.66 M sucrose containing MgCl2 and TES. The gradients were spun to equilibrium at 242,000 g for 40 min in a vertical rotor (Vti50, Beckman). The GCP fraction at the 0.32/0.83 M sucrose interface was collected and used for the experiments described below.
All assays were run in triplicate.

cPLA2 = assay: PLA2 activity (14C-AA release) in MAT-Lu cells; assay type: biochemical, rat; conditions: 5 mM dithiothreitol
Procedure: MAT-Lu cells were plated at a density of 0.5×10^6 cells per flask (T-75) and grown as detailed above to approximately 25% confluency. On the day before the experiments, the serum level in the medium was dropped to 1%. Cells were fed with fresh 1% serum-medium 4 hrs prior to harvest. For harvesting, cells were rinsed with Ca^++,Mg^++-free HBSS, covered with 2 ml cold Ca^++-free modified Krebs buffer (220 mM sucrose, 50 mM NaCl, 5 mM KCl, 22 mM HEPES, 10 mM glucose. 1.2 mM NaH2PO4 and 1.2 mM MgCl2, pH 7.3), and placed on ice. Cells were scraped off, pelleted for 5 min at 200 rpm and re-suspended in a minimal volume of Krebs buffer. Aliquots were used to determine protein concentration (Biorad Assay) and phopholipase activity. To measure PLA2 activity 10-12 μg of cell protein was incubated with or without thrombin for 10 min on ice, ^14C-AA-labeled phospholipid substrate (7 μM. 40-60 mCi/mmol) was added, and the mixture was transferred to 37° for 20 min. The reaction was stopped by adding cold cliloroform/methanol (1:2 v/v). Lipid extraction followed by thin-layer chromatography (Negre-Aminou et al., J Neurochem 67:2599-2608 (1996)) isolated the reaction product (identified by co-migration with AA standard), which was then scraped off the plates and analyzed in a scintillation spectrometer (Beckman). In some experiments, especially those involving ^14C-AA-phosphatidylinositol as substrate, the diacylglycerol-containing band (identified by co-migration of standard) also was scraped and counted in order to measure phospholipase C (PLC) activity.

AT-2 cells = assay: Pseudopod length / retraction assay, AT-2 cells; assay type: cell-based, rat
Procedure: as §1, §2

[2] = system: high motility (MAT-Lu, MAT-LyLu and AT-3) Dunning carcinoma cells; assay: Pseudopod length assay, high-motility Dunning carcinoma cells; assay type: cell-based, rat; conditions: 15-min incubation
Procedure: as §1
In some cases, individual cells were monitored over different periods of time immediately after introduction of the reagent, either by mixing it into the medium or by applying it locally to one end of the cell. […] Cell morphology was recorded, and the captured images were analyzed with a Power Macintosh computer using NIH Image. Cell process length was measured from the center of the nucleus to the end of the process. […]

12(S)-HETE receptor = conditions: Liu et al. 1995; Herbertsson and Hammarstrom 1992; cited from earlier work

Compound: CC(Cc1ccc(O)c(O)c1)C(C)Cc1ccc(O)c(O)c1 (stereo not drawn) [NDGA, nordihydroguaiaretic acid]
effect of inhibitor pretreatment on thrombin- or TRAP-induced growth cone collapse [1]: protects growth cones from thrombin- or TRAP-induced collapse | effect on conversion of 14C-AA into 12(S)-HETE (12-Lox; 60 min, 37° C.): blocked | effect of inhibitor pretreatment on AA-induced pseudopod shortening (MAT-Lu cells): blocked the AA effect completely; also recorded: inhibited the pseudopod shortening | effect of agent alone on pseudopod length (MAT-Lu cells): had no effect on pseudopod lengths

Compound: C=C1[C@@H](C)[C@H]2[C@H](Cc3ccccc3)NC(=O)[C@]23[C@H](OC(C)=O)/C=C/[C@@](C)(O)C(=O)[C@@H](C)C/C=C/[C@H]3[C@@H]1O [cytochalasin D]
effect on GCP detachment from laminin (GCPs plated on laminin): caused considerable release of GCPs by themselves

Compound: COc1ccc2c(c1)c(CC(=O)O)c(C)n2C(=O)c1ccc(Cl)cc1 [indomethacin]
effect of inhibitor pretreatment on thrombin- or TRAP-induced growth cone collapse [1]: has no effect on control or thrombin treatment of growth cones | effect of inhibitor on thrombin-stimulated HETE production from AA (12-Lox; 3H-AA substrate): not | effect of inhibitor pretreatment on AA-induced pseudopod shortening (MAT-Lu cells): did not influence the AA effect; also recorded: had no effect at all

stimulation of MARCKS and GAP43 phosphorylation (protein kinase C (PKC); isolated growth cones): not
Compound: CCCCC/C=C\C[C@@H](O)/C=C/C=C\C/C=C\CCCC(=O)O [12(R)-HETE]
effect of agent alone on pseudopod length (MAT-Lu cells): essentially inactive; also recorded: small reduction in pseudopod length

Compound: CC(=O)C(C)=NO [BDM, 2,3-butanedione monoxime]
effect on GCP detachment from laminin (GCPs plated on laminin): caused considerable release of GCPs by themselves

Compound: SFLLRN [TRAP]
activation of growth cone cPLA2/PLA2 (growth cone PLA2): clearly stimulated PLA2, but to a considerably lesser degree | activation of growth cone cPLA2/PLA2 (growth cone PLA2; listed as TRAPs): much less effectively | effect on GCP detachment from laminin (GCPs plated on laminin): mimics the effect | effect on GCP detachment from laminin (GCPs plated on laminin; listed as TRAPs): much less effectively | growth cone collapse, agent alone [1]: qualitatively the same effect as thrombin, but the change is not as pronounced

Compound: O[C@H](CS)[C@H](O)CS (racemic) [DTT, dithiothreitol]
net activity (pmol/min/mg protein), 50 nM DTT (growth cone PLA2; Table 3b, substrate PI, thrombin 100 nM or control): 66.0 ± 4.7 pmol/min/mg protein | effect of reducing agent on measured PLA2 activity (cPLA2): did not significantly inhibit the measured PLA2 activity

concentration at peak of MARCKS and GAP43 phosphorylation (biphasic) (protein kinase C (PKC); 30 sec @ 30° C., 10^−6M or less free Ca^2+): about 10^−10 M
Compound: CCCCC/C=C\C[C@H](O)/C=C/C=C\C/C=C\CCCC(=O)O [12(S)-HETE, 12(S)-hydroxyeicosatetraenoic acid]
effect on AT-2 pseudopod length (AT-2 cells; 10^−11M): seems to increase pseudopod length | pseudopod retraction response of AT-2 cells (AT-2 cells; AA even at 10^−1M): retraction was not observed | concentration at peak of pseudopod retraction [2]: 10^−11 to 10^−10 M | growth cone collapse, agent alone [1]: mimics the effects of thrombin and TRAP; also recorded: does indeed cause growth cone collapse | time until pseudopod shortening nearly complete for most cells (MAT-Lu cells; 10^−10M by medium replacement): about 15 min | time at which pseudopod lengths reach a minimum (MAT-Lu cells; 10^−10 M by medium replacement, 73 pseudopods): about 17 min | length reduction for the median pseudopod length versus control (MAT-Lu cells; at 10^−11 and 10^−10 M, 15 min, p<0.0001): > 45% | time until pseudopod absorbed completely into the cell (MAT-Lu cells; local application, 10^−10M): about 15 min | onset of pseudopod detachment and shortening (MAT-Lu cells; local application, 10^−10M, about 10 μm from cell process): ≤ 1 min | Kd (12(S)-HETE receptor): 1 nM | time required for saturation (12(S)-HETE receptor): 90 to 120 min
